Reference: patent publication US20230023009A1, “HETEROCYCLIC COMPOUNDS AND METHODS OF USE THEREOF” (SPARCBIO LLC, priority 2020, published 2023)
pIC50: −log10 of the molar value.

What was measured:
[1] = biological target: KRAS G12C protein (Homo sapiens, UniProt P01116, G12C); experiment: Nucleotide exchange assay (Method III, KRAS G12C/Raf-RBD TR-FRET); type: biochemical; settings: SOS1-mediated exchange of GDP for GTP, 18 hr compound incubation
Method: Method III. Inhibition of SOS1-mediated exchange of GDP for GTP on the KRAS G12C protein was measured in a biochemical assay that monitors association of KRAS G12C protein with the Ras-binding domain of Raf (Raf-RBD), where the association is coupled to exchange of GDP to GTP on the KRAS G12C protein. The assay was performed at WuXi AppTec (Shanghai, China). Compounds were serially diluted in 3-fold dilutions to 11 concentrations and spotted into the wells of an assay plate in a total volume of 150 nL DMSO per well. A 2× enzyme mix was prepared by diluting GDP-bound, His-tagged KRAS G12C to 25 nM in assay buffer. 10 μL/well of 2× enzyme mix was added to all wells, and the plate was sealed and incubated overnight (18 hr) at 23° C. 4×SOS1/GDP and 4×SOS1/GTP were prepared in assay buffer. 5 μL/well of 4×SOS1/GDP mix was added to negative control wells, 5 μL/well of 4×SOS1/GTP mix was added to the remaining wells, and the plate was further incubated at 23° C. for 1 hr. Finally, FLAG-tagged Raf-RBD is added to the reaction mixture along with a pair of FRET donor- and acceptor-conjugated antibodies specific for the FLAG-tagged Raf-RBD and His-tagged KRAS G12C proteins. A 4×Raf-RBD/Tb-anti-FLAG/D2-anti-His mix was prepared in assay buffer, and 5 μL/well of the mix was added to all wells, followed by incubation at room temperature for 2 hr. The TR-FRET signals, which increase with association of KRAS G12C and Raf-RBD, were measured on a Perkin Elmer Envision 2104 plate reader, and data were analyzed by non-linear regression to obtain IC50 values for inhibition by compounds. Table 2 includes results of the assay of Method III. ‘+++’ indicates IC50 values≤300 nM, ‘++’ indicates IC50 values between 300 nM-3 μM, and ‘+’ indicates IC50 values≥3 μM.

[2] = test system: MIA PaCa-2; experiment: Cell proliferation assay panel (Cell Titer-Glo, 72 hr); type: cell-based; settings: Homo sapiens, MIA PaCa-2, 72 h
Method: Potency of compounds was determined in cell proliferation assays in a panel of cancer cell lines. Cells were seeded in 384-well plates (Corning, Cat. #3765) at specified densities in 40 μL of culture medium and incubated overnight at 37° C. in a 5% CO2 incubator (culture conditions). With a robotic dispenser, serially diluted test compounds were added in a volume of 20 nL DMSO to wells in the culture plate to achieve the final desired concentrations of test compounds, and the cells were further incubated in culture conditions for 72 hr. The assay was terminated by addition of 25 μL of Cell Titer-Glo reagent (Promega, Madison, Wis.) to each well. Contents were mixed, the plate was incubated for 10 min at room temperature and luminescence was measured. The IC50 value of each test compound was calculated with XLFit curve fitting software. Results are shown in Table 4. ‘+++’ indicates IC50 values≤300 nM, ‘++’ indicates IC50 values between 300 nM-3 μM, and ‘+’ indicates IC50 values≥3 μM.

[3] = test system: NCI-H358 cells; experiment: 3D cell proliferation assay (Cell Titer-Glo 3D, 7 days); type: cell-based; settings: Homo sapiens, NCI-H358, 168 h, NCI-H358 3D, ultra-low attachment plate
Method: NCI-H358 cells (ATCC® CRL-5807™) were plated in a 384-well Black/Clear Round Bottom Ultra-Low Attachment Microplate (Corning) in medium (RPMI-1640+10% FBS) at a density of 1000 cells in 50 μL per well, then incubated overnight at 37° C. and 5% CO2. Cells were treated with test compounds at 9 concentrations within a specified concentration range (e.g., 0.5 nM-10 μM) for generation of dose response curves. Test compounds were prepared by 1:3 serial dilution in DMSO from a specified starting concentration (e.g., 20 μM, 2 μM or 0.2 μM) and then added to wells of the assay plate in a total volume of 150 nL DMSO. The cells were further incubated at 37° C. and 5% CO2 for 7 days. Cell viability was assessed by adding 40 μL of Cell Titer-Glo® 3D reagent (Cat. No.: G9683, Promega) to each well and reading luminescence after mixing and incubation of the samples. The IC50 value of each test compound was calculated with XLFit curve fitting software.

[4] = test system: Phosphorylation of ERK in NCI-H358 cells; experiment: pERK assay (Method II, homogeneous TR-FRET); type: cell-based; settings: Homo sapiens, 4 hrs compound treatment
Method: Method II. Phosphorylation of ERK was assessed by a homogeneous TR-FRET assay (Advanced phospho-ERK (Thr202/Tyr204) cellular kit; Cat. #64AERPEH, Cisbio). In brief, NCI-H358 cells were seeded in a 384-well culture plate at a density of 6000 cells in 40 μL medium/well and grown overnight at 37° C. and 5% CO2. Each test compound was dosed in duplicate in a 10-dose 3-fold titration starting at 10 μM or 2 μM. The culture plate was then incubated for 4 hrs in the incubator. At the end of the compound treatment, the medium was removed, 35 μL of lysis buffer was added to each well, and the plate was agitated on a plate shaker for 40 mins at 4° C. An antibody cocktail of phospho-ERK1/2 Eu Cryptate antibody and Phospho-ERK1/2 d2 antibody was prepared by separately diluting the antibodies 20-fold with detection buffer and then mixing them together. 3.4 μL of antibody cocktail was dispensed to each well of an empty 384-well white ProxiPlus assay plate (Perkin Elmer), and the plate briefly centrifuged. 13.6 μL of cell lysate was then added to the antibody-containing wells, and the plate was briefly centrifuged and then incubated 2 hrs at room temperature. The plate was read on a fluorescence plate reader (Envision2104, Perkin Elmer), with an excitation wavelength of 337 nm and emission wavelengths of 615 nm and 665 nm. The IC50 value of each test compound was calculated with XLFit curve fitting software. Results are shown in Table 6. ‘+++’ indicates IC50 values≤300 nM, ‘++’ indicates IC50 values between 300 nM-3 μM, and ‘+’ indicates IC50 values≥3 μM.

KRAS G12C protein, sequence (P01116 1-188 isoform P01116-2 G12C): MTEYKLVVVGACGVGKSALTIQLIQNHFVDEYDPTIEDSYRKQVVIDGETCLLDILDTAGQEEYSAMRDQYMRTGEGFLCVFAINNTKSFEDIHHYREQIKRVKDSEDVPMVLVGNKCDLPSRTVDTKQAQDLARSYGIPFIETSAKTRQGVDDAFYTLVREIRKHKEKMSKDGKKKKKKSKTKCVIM

Compound | pIC50 [1] | pIC50 [2] | pIC50 [3] | pIC50 [4]
C=C(F)C(=O)N1CCN(c2nc(OC[C@@H]3CCCN3C)nc3c2COC(c2c(C)ccc4[nH]ncc24)C3)C[C@@H]1CC#N (single isomer, unassigned) [52 (Isomer B)] | ≥ 6.52 | 5.52 to 6.52 | 5.70 to 7.00 | 5.52 to 6.52
C/C=C/C(=O)N1CCN(c2nc(OC[C@@H]3CCCN3C)nc3c2COC(c2cccc4cccc(Cl)c24)C3)C[C@@H]1CC#N (single isomer, unassigned) [241 (Isomer A)] | ≥ 6.52 | 5.52 to 6.52 | ≥ 7.00 | ≥ 6.52
CC#CC(=O)N1CCN(c2nc(OC[C@@H]3CCCN3C)nc3c2COC(c2cccc4cccc(Cl)c24)C3)C[C@@H]1CC#N (single isomer, unassigned) [243 (Isomer B)] | ≥ 6.52 | ≥ 6.52 | ≥ 7.00 | ≥ 6.52
